Key:
HDAC2 = target: T1, HDAC2 (Homo sapiens, UniProt Q92769); assay: HDAC2 enzyme inhibition assay (fluorimetric); format: biochemical; conditions: 1 μM compound; 3 h pre-incubation; recombinant full length HDAC2; read-out: HDAC2 % inh @ 1 μM
T1 construct: (full length with C-terminal His-tag); His (C); purchased BPS Bioscience Inc. 50002
Procedure: (§1) HDAC6 and HDAC2 Enzyme Inhibition Assay
(§2) A fluorimetric assay was used for testing the activity of compounds of the invention against HDAC6 and HDAC2.
(§3) The compounds were dissolved in DMSO. Serial dilutions were prepared in DMSO and then diluted 1:10 in HDAC assay buffer (Tris-buffered solution, BPS Bioscience Inc. #50031). 5 μl of the compound dilution was added to a 50 μl reaction so that the final concentration of DMSO was 1%.
(§4) The compounds were pre-incubated in duplicate at RT for 3 hours in a mixture containing HDAC assay buffer, 5 μg BSA and recombinant HDAC enzyme (see table above). The enzymatic reactions were initiated by the addition of a fluorogenic, acetylated peptide substrate based on a histone protein (BPS Bioscience Inc. #50037) to a final concentration of 10 μM. The enzymatic reaction proceeded for 30 minutes at 37° C. Then, 50 μl of 2× HDAC Developer, which contains peptidase activity and Trichostatin A (BPS Bioscience Inc. #50030) was added and the plate was incubated at RT for an additional 15 minutes. Fluorescence intensity was measured at an excitation of 360 nm and an emission of 460 nm using a Tecan Infinite M1000 microplate reader.
(§5) Trichostatin A (TSA, Selleckchem #S1045) was used as reference inhibitor.
(§6) The fluorescent intensity data were analyzed using the computer software Graphpad Prism (GraphPad Software, San Diego, CA). 100% activity was defined as the fluorescent intensity (Ft) in the absence of the compound. 0% activity was defined as the fluorescent intensity (Fb) in the absence of the enzyme. The percent activity in the presence of each compound was calculated according to the following equation: % activity=(F−Fb)/(Ft−Fb), where F=the fluorescent intensity in the presence of the compound.

HDAC6 [1] = target: T2, HDAC6 (Homo sapiens, UniProt Q9UBN7); assay: HDAC6 enzyme inhibition assay (fluorimetric); format: biochemical; conditions: 1 μM compound; 3 h pre-incubation; recombinant full length HDAC6; read-out: HDAC6 % inh @ 1 μM
T2 sequence (Q9UBN7 1-1215): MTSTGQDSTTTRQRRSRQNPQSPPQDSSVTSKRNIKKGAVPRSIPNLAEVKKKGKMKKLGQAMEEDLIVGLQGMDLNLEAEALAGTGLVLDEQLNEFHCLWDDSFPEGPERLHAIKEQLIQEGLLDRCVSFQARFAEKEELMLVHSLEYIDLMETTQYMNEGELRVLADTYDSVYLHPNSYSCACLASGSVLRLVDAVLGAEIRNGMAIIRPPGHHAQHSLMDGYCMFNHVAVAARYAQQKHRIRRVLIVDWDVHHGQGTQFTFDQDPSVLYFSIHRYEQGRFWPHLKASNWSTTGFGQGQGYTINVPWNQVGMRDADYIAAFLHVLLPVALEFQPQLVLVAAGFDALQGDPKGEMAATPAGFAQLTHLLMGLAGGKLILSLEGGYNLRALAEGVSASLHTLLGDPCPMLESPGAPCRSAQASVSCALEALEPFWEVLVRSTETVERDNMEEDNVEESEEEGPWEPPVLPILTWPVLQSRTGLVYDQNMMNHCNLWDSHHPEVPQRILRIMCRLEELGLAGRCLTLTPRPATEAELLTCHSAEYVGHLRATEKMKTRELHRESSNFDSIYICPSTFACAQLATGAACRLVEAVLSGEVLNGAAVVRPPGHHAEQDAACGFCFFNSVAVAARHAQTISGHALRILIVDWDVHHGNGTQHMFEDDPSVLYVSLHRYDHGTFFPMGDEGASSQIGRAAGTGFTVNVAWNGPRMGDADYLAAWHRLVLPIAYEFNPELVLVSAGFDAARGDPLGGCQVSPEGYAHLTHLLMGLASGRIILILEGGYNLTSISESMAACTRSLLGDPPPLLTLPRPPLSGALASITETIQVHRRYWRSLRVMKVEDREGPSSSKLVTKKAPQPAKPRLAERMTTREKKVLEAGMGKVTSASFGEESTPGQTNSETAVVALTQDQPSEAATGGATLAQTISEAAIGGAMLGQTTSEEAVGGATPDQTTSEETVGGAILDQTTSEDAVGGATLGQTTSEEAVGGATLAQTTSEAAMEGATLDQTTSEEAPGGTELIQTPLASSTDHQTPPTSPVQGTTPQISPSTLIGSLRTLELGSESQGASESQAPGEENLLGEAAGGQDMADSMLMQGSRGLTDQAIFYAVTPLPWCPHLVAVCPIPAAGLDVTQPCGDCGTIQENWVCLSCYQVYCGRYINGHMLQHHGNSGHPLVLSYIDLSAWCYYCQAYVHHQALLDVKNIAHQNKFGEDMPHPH
Procedure: as §1, §2, §3, §4, §5, §6

HDAC6 [2] = target: T2, HDAC6; assay: In vitro cell-based assay: acetylation levels of Alpha-Tubulin by Western Blot in MOLP8 cells; design: endogenous in cells; host or cells: MOLP8; conditions: 18 h, acetyl-alpha-tubulin relative band intensity, ACY-1215 1 μM = 100%
How it was run: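 MOLP8 cells treated with compounds at 5 and 1 μM for 18 h at 37° C.; acetyl-alpha-tubulin measured by Western blot of RIPA extracts (7 μg protein). Bands normalized to total protein or beta-actin, expressed relative to ACY-1215 1 μM (100%), then classed.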

T1 sequence (Q92769 whole entry): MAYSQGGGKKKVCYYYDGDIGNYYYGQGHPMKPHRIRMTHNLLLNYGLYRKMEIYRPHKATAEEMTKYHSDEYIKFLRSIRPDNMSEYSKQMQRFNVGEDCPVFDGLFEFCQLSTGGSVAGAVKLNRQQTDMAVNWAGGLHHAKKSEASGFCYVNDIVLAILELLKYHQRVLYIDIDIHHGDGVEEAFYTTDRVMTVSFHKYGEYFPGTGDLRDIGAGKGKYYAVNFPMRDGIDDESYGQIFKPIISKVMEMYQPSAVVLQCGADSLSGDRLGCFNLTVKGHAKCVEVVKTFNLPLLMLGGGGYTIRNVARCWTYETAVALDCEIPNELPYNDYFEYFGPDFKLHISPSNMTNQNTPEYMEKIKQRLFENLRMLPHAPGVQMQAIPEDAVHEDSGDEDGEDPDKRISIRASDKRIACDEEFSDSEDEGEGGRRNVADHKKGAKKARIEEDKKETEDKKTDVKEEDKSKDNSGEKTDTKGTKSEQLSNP

Structure (SMILES) | inhibition at 1 µM (HDAC2) | inhibition at 1 µM (HDAC6 [1]) | Cellular activity @1 uM (HDAC6 [2]) | Cellular activity @5 uM (HDAC6 [2])
FC(F)(F)c1nc(-c2ccnc(-c3cc4c(ccn4Cc4ccncc4)cn3)c2)no1 [Example 1al, 3-(2-(1-(Pyridin-4-ylmethyl)-1H-pyrrolo[3,2-c]pyridin-6-yl)pyridin-4-yl)-5-(trifluoromethyl)-1,2,4-oxadiazole] | 31% | 92% | ++ (150-300) | ++ (150-300)
Cn1cc(-c2cn[nH]c2)c2cc(-c3cc(-c4noc(C(F)(F)F)n4)ccn3)ncc21 [Example 1ap, 3-(2-(1-Methyl-3-(1H-pyrazol-4-yl)-1H-pyrrolo[2,3-c]pyridin-5-yl)pyridin-4-yl)-5-(trifluoromethyl)-1,2,4-oxadiazole] | 6% | 86% | + (50-150) | ++ (150-300)
CCCCn1cc(C2=CCN(C)CC2)c2cc(-c3cc(-c4noc(C(F)(F)F)n4)ccn3)ncc21 [Example 1aq, 3-(2-(1-Butyl-3-(1-methyl-1,2,3,6-tetrahydropyridin-4-yl)-1H-pyrrolo[2,3-c]pyridin-5-yl)pyridin-4-yl)-5-(trifluoromethyl)-1,2,4-oxadiazole] | 2% | 89% | ++ (150-300) | ++ (150-300)
COCCn1ccc2cnc(-c3cc(-c4noc(C(F)(F)F)n4)ccn3)cc21 [Example 1au, 3-(2-(1-(2-Methoxyethyl)-1H-pyrrolo[3,2-c]pyridin-6-yl)pyridin-4-yl)-5-(trifluoromethyl)-1,2,4-oxadiazole] | 19% | 85% | + (50-150) | ++ (150-300)
FC(F)(F)c1nc(-c2ccnc(-c3cc4c(ccn4Cc4ccccn4)cn3)c2)no1 [Example 1aw, 3-(2-(1-(Pyridin-2-ylmethyl)-1H-pyrrolo[3,2-c]pyridin-6-yl)pyridin-4-yl)-5-(trifluoromethyl)-1,2,4-oxadiazole] | 15% | 81% | + (50-150) | ++ (150-300)
CCN(CC)CCCOc1ccc(-c2cc(-c3noc(C(F)(F)F)n3)ccn2)nc1 [Example 1c, N,N-Diethyl-3-((4′-(5-(trifluoromethyl)-1,2,4-oxadiazol-3-yl)-[2,2′-bipyridin]-5-yl)oxy)propan-1-amine] | 3% | 89% | + (50-150) | ++ (150-300)
FC(F)(F)c1nc(-c2ccnc(-c3ccc(OCCCN4CCOCC4)cn3)c2)no1 [Example 1e, 4-(3-((4′-(5-(Trifluoromethyl)-1,2,4-oxadiazol-3-yl)-[2,2′-bipyridin]-5-yl)oxy)propyl)morpholine] | 9% | 84% | + (50-150) | ++ (150-300)
FC1(F)CCN(CCCOc2ccc(-c3cc(-c4noc(C(F)(F)F)n4)ccn3)nc2)CC1 [Example 1f, 3-(5′-(3-(4,4-Difluoropiperidin-1-yl)propoxy)-[2,2′-bipyridin]-4-yl)-5-(trifluoromethyl)-1,2,4-oxadiazole] | 16% | 71% | − (<50) | ++ (150-300)
CCCn1cc(CN2CCCCC2)c2cc(-c3cc(-c4noc(C(F)(F)F)n4)ccn3)ncc21 [Example 1g, 3-(2-(3-(Piperidin-1-ylmethyl)-1-propyl-1H-pyrrolo[2,3-c]pyridin-5-yl)pyridin-4-yl)-5-(trifluoromethyl)-1,2,4-oxadiazole] | 38% | 96% | + (50-150) | +++ (>300)
CN(CC1CC1)c1ccc(-c2cc(-c3noc(C(F)(F)F)n3)ccn2)nc1 [Example 1j, N-(Cyclopropylmethyl)-N-methyl-4′-(5-(trifluoromethyl)-1,2,4-oxadiazol-3-yl)-[2,2′-bipyridin]-5-amine] | 10% | 69% | − (<50) | ++ (150-300)
CCN(CC)CCCNc1ccc(-c2cc(-c3noc(C(F)(F)F)n3)ccn2)nc1 [Example 1k, N^1,N^1-Diethyl-N^3-(4′-(5-(trifluoromethyl)-1,2,4-oxadiazol-3-yl)-[2,2′-bipyridin]-5-yl)propane-1,3-diamine] | 27% | 95% | + (50-150) | + (50-150)
FC(F)(F)c1nc(-c2ccnc(-c3cc4c(ccn4C4CCOCC4)cn3)c2)no1 [Example 1o, 3-(2-(1-(Tetrahydro-2H-pyran-4-yl)-1H-pyrrolo[3,2-c]pyridin-6-yl)pyridin-4-yl)-5-(trifluoromethyl)-1,2,4-oxadiazole] | 23% | 97% | ++ (150-300) | +++ (>300)
O=C(Cc1ccccc1)Nc1ccc(-c2cc(-c3noc(C(F)(F)F)n3)ccn2)nc1 [Example 1q, 2-Phenyl-N-(4′-(5-(trifluoromethyl)-1,2,4-oxadiazol-3-yl)-[2,2′-bipyridin]-5-yl)acetamide] | 11% | 73% | + (50-150) | ++ (150-300)
CN(C)C(=O)c1cc2cc(-c3cc(-c4noc(C(F)(F)F)n4)ccn3)ncc2n1C [Example 1u, N,N,1-Trimethyl-5-(4-(5-(trifluoromethyl)-1,2,4-oxadiazol-3-yl)pyridin-2-yl)-1H-pyrrolo[2,3-c]pyridine-2-carboxamide] | 19% | 98% | +++ (>300) | +++ (>300)
CCCn1cc(-c2cn[nH]c2)c2cc(-c3cc(-c4noc(C(F)(F)F)n4)ccn3)ncc21 [Example 1v, 3-(2-(1-Propyl-3-(1H-pyrazol-4-yl)-1H-pyrrolo[2,3-c]pyridin-5-yl)pyridin-4-yl)-5-(trifluoromethyl)-1,2,4-oxadiazole] | 3% | 66% | + (50-150) | +++ (>300)
